Measurements published in patent US20230111310A1, “CARBOXYLIC ACID DERIVATIVE-SUBSTITUTED IMINO ARYL COMPOUND, PREPARATION METHOD THEREFOR, HERBICIDAL COMPOSITION AND USE THEREOF” (Qingdao Kingagroot Chemical Compound Co., Ltd., priority 2020, published 2023).

Experiments:
Test in all cases: Weeding effect in post-emergence stage
Format in all cases: in vivo
Settings in all cases: fresh weight control rate level
Abutilon theophrasti = system: Abutilon theophrasti
Outline: (§1)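 Post-emergence spray tower; 2-3 leaf plants (2 wk after sowing, soil pots, greenhouse). Formulation: acetone, Tween 80, methyl oleate EC 1.5 liter/ha as synergist, water. Rates 500–7.5 g/ha. Growth control rate read at 3 wk; n=3, averaged.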

Alopecurus japonicus = system: Alopecurus japonicus
Outline: as §1

Digitaria sanguinalis = system: Digitaria sanguinalis
Outline: as §1

Eleusine indica = system: Eleusine indica
Outline: as §1

Setaria viridis = system: Setaria viridis
Outline: as §1

Echinochloa crusgalli = system: Echinochloa crusgalli
Outline: as §1

SMILES | Weeding effect in post-emergence stage, Abutilon theophrasti (level) (Abutilon theophrasti; Dose 15 g/ha) | Weeding effect in post-emergence stage, Alopecurus japonicus (level) (Alopecurus japonicus; Dose 15 g/ha) | Weeding effect in post-emergence stage, Digitaria sanguinalis (level) (Digitaria sanguinalis; Dose 15 g/ha) | Weeding effect in post-emergence stage, Eleusine indica (level) (Eleusine indica; Dose 15 g/ha) | Weeding effect in post-emergence stage, Setaria viridis (level) (Setaria viridis; Dose 15 g/ha) | Weeding effect in post-emergence stage, Echinochloa crusgalli (level) (Echinochloa crusgalli; Dose 15 g/ha) | further results
COC(=O)C(C)O/N=C/c1cc(N2C(=O)CC(N)(C(F)(F)F)N(C)C2=O)c(F)cc1Cl (stereo not drawn) [Compound 432] | 5 (Level 5: growth control rate is above 85%) | 5 (Level 5: growth control rate is above 85%) | 5 (Level 5: growth control rate is above 85%) | 5 (Level 5: growth control rate is above 85%) | 5 (Level 5: growth control rate is above 85%) | 5 (Level 5: growth control rate is above 85%) | 
CC(O/N=C/c1cc(-n2c(=O)n(C)c(=S)n(C)c2=O)c(F)cc1Cl)C(=O)O (stereo not drawn) [Compound 438] |  |  |  |  |  |  | Weeding effect in post-emergence stage, Abutilon theophrasti (level) (Abutilon theophrasti; Dose 30 g/ha): 5 (Level 5: growth control rate is above 85%); Weeding effect in post-emergence stage, Alopecurus japonicus (level) (Alopecurus japonicus; Dose 30 g/ha): 5 (Level 5: growth control rate is above 85%); Weeding effect in post-emergence stage, Digitaria sanguinalis (level) (Digitaria sanguinalis; Dose 30 g/ha): 5 (Level 5: growth control rate is above 85%); Weeding effect in post-emergence stage, Eleusine indica (level) (Eleusine indica; Dose 30 g/ha): 5 (Level 5: growth control rate is above 85%); Weeding effect in post-emergence stage, Setaria viridis (level) (Setaria viridis; Dose 30 g/ha): 5 (Level 5: growth control rate is above 85%); Weeding effect in post-emergence stage, Echinochloa crusgalli (level) (Echinochloa crusgalli; Dose 30 g/ha): 5 (Level 5: growth control rate is above 85%)
CC(O/N=C/c1cc(-n2c(=O)n(C)c(=S)n(C)c2=O)c(F)cc1Cl)C(=O)OCC(F)(F)F (stereo not drawn) [Compound 439] |  |  |  |  |  |  | Weeding effect in post-emergence stage, Abutilon theophrasti (level) (Abutilon theophrasti; Dose 30 g/ha): 5 (Level 5: growth control rate is above 85%); Weeding effect in post-emergence stage, Alopecurus japonicus (level) (Alopecurus japonicus; Dose 30 g/ha): 5 (Level 5: growth control rate is above 85%); Weeding effect in post-emergence stage, Digitaria sanguinalis (level) (Digitaria sanguinalis; Dose 30 g/ha): 5 (Level 5: growth control rate is above 85%); Weeding effect in post-emergence stage, Eleusine indica (level) (Eleusine indica; Dose 30 g/ha): 5 (Level 5: growth control rate is above 85%); Weeding effect in post-emergence stage, Setaria viridis (level) (Setaria viridis; Dose 30 g/ha): 5 (Level 5: growth control rate is above 85%); Weeding effect in post-emergence stage, Echinochloa crusgalli (level) (Echinochloa crusgalli; Dose 30 g/ha): 5 (Level 5: growth control rate is above 85%)
C#CCCOC(=O)C(C)O/N=C/c1cc(-n2c(=O)cc(C(F)(F)F)n(C)c2=O)c(F)cc1Cl (stereo not drawn) [Compound 442] | 5 (Level 5: growth control rate is above 85%) | 5 (Level 5: growth control rate is above 85%) | 5 (Level 5: growth control rate is above 85%) | 5 (Level 5: growth control rate is above 85%) | 5 (Level 5: growth control rate is above 85%) | 5 (Level 5: growth control rate is above 85%) | 
CC(C#N)OC(=O)C(C)O/N=C/c1cc(-n2c(=O)cc(C(F)(F)F)n(C)c2=O)c(F)cc1Cl (stereo not drawn) [Compound 443] | 5 (Level 5: growth control rate is above 85%) | 5 (Level 5: growth control rate is above 85%) | 5 (Level 5: growth control rate is above 85%) | 5 (Level 5: growth control rate is above 85%) | 5 (Level 5: growth control rate is above 85%) | 5 (Level 5: growth control rate is above 85%) | 
CC(CC#N)OC(=O)C(C)O/N=C/c1cc(-n2c(=O)cc(C(F)(F)F)n(C)c2=O)c(F)cc1Cl (stereo not drawn) [Compound 444] | 5 (Level 5: growth control rate is above 85%) | 5 (Level 5: growth control rate is above 85%) | 5 (Level 5: growth control rate is above 85%) | 5 (Level 5: growth control rate is above 85%) | 5 (Level 5: growth control rate is above 85%) | 5 (Level 5: growth control rate is above 85%) | 
CC(C#N)COC(=O)C(C)O/N=C/c1cc(-n2c(=O)cc(C(F)(F)F)n(C)c2=O)c(F)cc1Cl (stereo not drawn) [Compound 445] | 5 (Level 5: growth control rate is above 85%) | 5 (Level 5: growth control rate is above 85%) | 5 (Level 5: growth control rate is above 85%) | 5 (Level 5: growth control rate is above 85%) | 5 (Level 5: growth control rate is above 85%) | 5 (Level 5: growth control rate is above 85%) | 
CC(O/N=C/c1cc(-n2c(=O)cc(C(F)(F)F)n(C)c2=O)c(F)cc1Cl)C(=O)OCCCC#N (stereo not drawn) [Compound 446] | 5 (Level 5: growth control rate is above 85%) | 5 (Level 5: growth control rate is above 85%) | 5 (Level 5: growth control rate is above 85%) | 5 (Level 5: growth control rate is above 85%) | 5 (Level 5: growth control rate is above 85%) | 5 (Level 5: growth control rate is above 85%) | 
CC(O/N=C/c1cc(-n2c(=O)cc(C(F)(F)F)n(C)c2=O)c(F)cc1Cl)C(=O)OCC1(C#N)CC1 (stereo not drawn) [Compound 447] | 5 (Level 5: growth control rate is above 85%) | 5 (Level 5: growth control rate is above 85%) | 5 (Level 5: growth control rate is above 85%) | 5 (Level 5: growth control rate is above 85%) | 5 (Level 5: growth control rate is above 85%) | 5 (Level 5: growth control rate is above 85%) | 
CC(O/N=C/c1cc(-n2c(=O)cc(C(F)(F)F)n(C)c2=O)c(F)cc1Cl)C(=O)OCCN(C)C (stereo not drawn) [Compound 448] | 5 (Level 5: growth control rate is above 85%) | 5 (Level 5: growth control rate is above 85%) | 5 (Level 5: growth control rate is above 85%) | 5 (Level 5: growth control rate is above 85%) | 5 (Level 5: growth control rate is above 85%) | 5 (Level 5: growth control rate is above 85%) | 
CC(=NOC(=O)C(C)ON=Cc1cc(-n2c(=O)cc(C(F)(F)F)n(C)c2=O)c(F)cc1Cl)C(C)(C)C (stereo not drawn) [Compound 449] | 5 (Level 5: growth control rate is above 85%) | 5 (Level 5: growth control rate is above 85%) | 5 (Level 5: growth control rate is above 85%) | 5 (Level 5: growth control rate is above 85%) | 5 (Level 5: growth control rate is above 85%) | 5 (Level 5: growth control rate is above 85%) | 
CC(=NOC(=O)C(C)ON=Cc1cc(-n2c(=O)cc(C(F)(F)F)n(C)c2=O)c(F)cc1Cl)C1CC1 (stereo not drawn) [Compound 450] | 5 (Level 5: growth control rate is above 85%) | 5 (Level 5: growth control rate is above 85%) | 5 (Level 5: growth control rate is above 85%) | 5 (Level 5: growth control rate is above 85%) | 5 (Level 5: growth control rate is above 85%) | 5 (Level 5: growth control rate is above 85%) | 
CC(=NC(=O)C(C)ON=Cc1cc(-n2c(=O)cc(C(F)(F)F)n(C)c2=O)c(F)cc1Cl)c1ccccc1 (stereo not drawn) [Compound 453] |  |  |  |  |  |  | Weeding effect in post-emergence stage, Abutilon theophrasti (level) (Abutilon theophrasti; Dose 30 g/ha): 5 (Level 5: growth control rate is above 85%); Weeding effect in post-emergence stage, Alopecurus japonicus (level) (Alopecurus japonicus; Dose 30 g/ha): 5 (Level 5: growth control rate is above 85%); Weeding effect in post-emergence stage, Digitaria sanguinalis (level) (Digitaria sanguinalis; Dose 30 g/ha): 5 (Level 5: growth control rate is above 85%); Weeding effect in post-emergence stage, Eleusine indica (level) (Eleusine indica; Dose 30 g/ha): 5 (Level 5: growth control rate is above 85%); Weeding effect in post-emergence stage, Setaria viridis (level) (Setaria viridis; Dose 30 g/ha): 5 (Level 5: growth control rate is above 85%); Weeding effect in post-emergence stage, Echinochloa crusgalli (level) (Echinochloa crusgalli; Dose 30 g/ha): 5 (Level 5: growth control rate is above 85%)
CC(O/N=C/c1cc(-n2c(=O)cc(C(F)(F)F)n(C)c2=O)c(F)cc1Cl)C(=O)N1CCOCC1 (stereo not drawn) [Compound 454] |  |  |  |  |  |  | Weeding effect in post-emergence stage, Abutilon theophrasti (level) (Abutilon theophrasti; Dose 60 g/ha): 5 (Level 5: growth control rate is above 85%); Weeding effect in post-emergence stage, Alopecurus japonicus (level) (Alopecurus japonicus; Dose 60 g/ha): 5 (Level 5: growth control rate is above 85%); Weeding effect in post-emergence stage, Digitaria sanguinalis (level) (Digitaria sanguinalis; Dose 60 g/ha): 5 (Level 5: growth control rate is above 85%); Weeding effect in post-emergence stage, Eleusine indica (level) (Eleusine indica; Dose 60 g/ha): 5 (Level 5: growth control rate is above 85%); Weeding effect in post-emergence stage, Setaria viridis (level) (Setaria viridis; Dose 60 g/ha): 5 (Level 5: growth control rate is above 85%); Weeding effect in post-emergence stage, Echinochloa crusgalli (level) (Echinochloa crusgalli; Dose 60 g/ha): 5 (Level 5: growth control rate is above 85%)
COC(=O)CCCO/N=C/c1cc(-n2c(=O)cc(C(F)(F)F)n(C)c2=O)c(F)cc1Cl [Compound 485] | 5 (Level 5: growth control rate is above 85%) | 5 (Level 5: growth control rate is above 85%) | 5 (Level 5: growth control rate is above 85%) | 5 (Level 5: growth control rate is above 85%) | 5 (Level 5: growth control rate is above 85%) | 5 (Level 5: growth control rate is above 85%) | 
